One compound from PMC12422966, “ACLY inhibition promotes tumour immunity and suppresses liver cancer” (Nature, 2025) can be followed below.

In the test the target is T1, SLC27A2 (FATP2, ACSVL1) (Homo sapiens, UniProt O14975).
T1 construct: SLC27A2 (NM_003645, human tagged ORF clone) expressed in HEK293 cells
The experiment in a line: LC–MS/MS detection of EVT0185-CoA in HEK293 cells overexpressing SLC27A2, […] EVT0185. In kind it is cell-based.

The structures appear in SMILES notation.

For `CC(C)(CCCCc1ccc(CCCCC(C)(C)C(=O)O)cc1)C(=O)O` [EVT0185, 6-[4-(5-carboxy-5-methyl-hexyl)-phenyl]−2,2-dimethylhexanoic acid], the “LC-MS/MS detection of EVT0185-CoA in HEK293 cells overexpressing SLC27A2, 30 μM” value is on record as “Incubation of HEK293 cells with EVT0185 followed by mass spectrometry analysis indicated that only cells expressing SLC27A2 generated the CoA thioester”.
